Assay: Concentration required for 50% inhibition of Shiga-like toxin type 1 (Stx1A1)

Cc1nc2c(=O)[nH]c(N)nc2o1
IC50: 1000 µM

Cc1cc2c(O)[nH]c(N)nc-2n1
IC50: 4300 µM

Nc1nc2c(c(=O)[nH]1)CC=N2
IC50: 2000 µM

Nc1nc(O)c2nc(CNc3ccc(C(=O)O)cc3)cnc2n1 [PTEROIC ACID]
IC50: 600 µM

Reference: ChEMBL document CHEMBL1135433 (J Med Chem, 2002)
